Results reported in patent publication US20200288710A1, “SUBSTITUTED SULPHONAMIDES FOR CONTROLLING ANIMAL PESTS” (BAYER CROPSCIENCE AKTIENGESELLSCHAFT, priority 2016, published 2020).

Legend:
Type in all cases: in vivo
Meloidogyne incognita = Meloidogyne incognita test; conditions: 336 h, lettuce, after 14 days, read-out: nematicidal efficacy (formation of galls)
Procedure: Meloidogyne incognita Test Solvent: 125.0 parts by weight of acetone To produce a suitable active compound preparation, 1 part by weight of active compound is mixed with the stated amount of solvent and the concentrate is diluted with water to the desired concentration. Vessels are filled with sand, active compound solution, an egg/larvae suspension of the southern rootknot nematode (Meloidogyne incognita) and lettuce seeds. The lettuce seeds germinate and the plants develop. The galls develop on the roots. After 14 days, the nematicidal efficacy in % is determined by the formation of galls. 100% means that no galls were found; 0% means that the number of galls on the treated plants corresponds to the untreated control.

Myzus persicae [1] = experiment: Myzus persicae spray test (Chinese cabbage leaf discs); conditions: foliar, 120 h, 500 g/ha, after 5-6 days, read-out: efficacy
Procedure: Myzus persicae—Spray Test Solvent: 78 parts by weight of acetone • • 1.5 parts by weight of dimethylformamide Emulsifier: alkylaryl polyglycol ether To produce a suitable preparation of active compound, 1 part by weight of active compound is dissolved using the specified parts by weight of solvent and made up with water containing an emulsifier concentration of 1000 ppm until the desired concentration is attained. To produce further test concentrations, the formulation is diluted with emulsifier-containing water. Discs of Chinese cabbage leaves (Brassica pekinensis) infested by all stages of the green peach aphid (Myzus persicae) are sprayed with an active compound preparation of the desired concentration. After 5-6 days, the efficacy in % is determined. 100% means that all the aphids have been killed; 0% means that no aphids have been killed.

Myzus persicae [2] = experiment: Myzus persicae oral test; conditions: 120 h, 20 ppm, oral uptake, after 5 days, read-out: efficacy
Procedure: Myzus persicae—Oral Test Solvent: 100 parts by weight of acetone To produce a suitable preparation of active compound, 1 part by weight of active compound is dissolved using the specified parts by weight of solvent and made up with water until the desired concentration is attained. 50 μl of the active compound preparation are transferred into microtitre plates and made up to a final volume of 200 μl with 150 μl of IPL41 insect medium (33%+15% sugar). Subsequently, the plates are sealed with parafilm, which a mixed population of green peach aphids (Myzus persicae) within a second microtitre plate is able to puncture and imbibe the solution through it. After 5 days, the efficacy in % is determined. 100% means that all the aphids have been killed; 0% means that no aphids have been killed.

| Compound | pest or weed control at 20 ppm (Meloidogyne incognita) | pest or weed control at 500 g/ha (Myzus persicae [1]) | pest or weed control at 20 ppm (Myzus persicae [2]) |
| --- | --- | --- | --- |
| Cc1[nH]c(-c2ccc(F)cc2F)nc1C(=O)NS(=O)(=O)C(C)C [Example 622] | 90% | – | – |
| Cc1[nH]c(-c2ccc(Cl)cc2)nc1C(=O)NS(=O)(=O)c1ccccc1Cl [Example 232] | 90% | – | – |
| COc1ccccc1S(=O)(=O)NC(=O)c1cn(C)c(-c2ccc(F)c(F)c2)n1 [Example 546] | 100% | – | – |
| COc1ccc(Cl)c(S(=O)(=O)NC(=O)c2c(Cl)nc(-c3ccccc3Cl)n2C)c1 [Example 203] | 100% | – | – |
| Cc1cccc(C)c1S(=O)(=O)NC(=O)c1cc(-c2ncccc2Cl)n(-c2ccccc2Cl)n1 [Example 267] | 100% | – | – |
| COc1ccccc1S(=O)(=O)NC(=O)c1nc(-c2c(F)cccc2F)nn1C [Example 409] | 90% | – | – |
| COc1ccccc1S(=O)(=O)NC(=O)c1cn(C)c(-c2ccc(Cl)c(Cl)c2)n1 [Example 537] | 100% | – | – |
| CCc1[nH]c(-c2cc(Cl)cc(Cl)c2)nc1C(=O)NS(=O)(=O)c1ccccc1Cl [Example 254] | 90% | – | – |
| CC(C)Nc1ccccc1S(=O)(=O)NC(=O)c1cn(C)c(-c2ccccc2Cl)n1 [Example 253] | 90% | – | – |
| COc1cccc(C(C)C)c1S(=O)(=O)NC(=O)c1cn(C)c(-c2c(F)cccc2F)n1 [Example 377] | 90% | – | – |
| COc1ccc(Cl)c(S(=O)(=O)NC(=O)c2nc(-c3cccc(C(C)C)c3)[nH]c2C)c1 [Example 621] | 90% | – | – |
| COc1ccc(Cl)c(S(=O)(=O)NC(=O)c2nc(-c3c(F)cccc3Cl)[nH]c2C)c1 [Example 624] | 90% | – | – |
| O=C(NS(=O)(=O)c1ccccc1Cl)c1cc(-c2ncccc2Cl)n(-c2ccccc2Cl)n1 [Example 264] | 100% | – | – |
| Cn1cc(C(=O)NS(=O)(=O)c2cc(Cl)c(Cl)s2)nc1-c1c(F)cccc1F [Example 355] | 90% | – | – |
| Cn1cc(C(=O)NS(=O)(=O)c2ccccc2Cl)nc1-c1cccc2c1OC(F)(F)O2 [Example 541] | 100% | – | – |
| CCOc1cccc(C(C)C)c1S(=O)(=O)NC(=O)c1cn(C)c(-c2c(F)cccc2F)n1 [Example 384] | 90% | – | – |
| Cn1cc(C(=O)NS(=O)(=O)c2c(Cl)cccc2Cl)nc1-c1c(F)cc(F)cc1F [Example 4] | 90% | – | – |
| Cn1cc(C(=O)NS(=O)(=O)c2ccccc2C(C)(C)C)nc1-c1c(F)cccc1F [Example 360] | 90% | – | – |
| COc1ccc(C(C)(C)C)cc1S(=O)(=O)NC(=O)c1cn(C)c(-c2c(F)cccc2F)n1 [Example 392] | 90% | – | – |

| Compound | pest or weed control at 20 ppm (Meloidogyne incognita) | pest or weed control at 500 g/ha (Myzus persicae [1]) | pest or weed control at 20 ppm (Myzus persicae [2]) |
| --- | --- | --- | --- |
| Cc1ccccc1S(=O)(=O)NC(=O)c1cc(-c2ccccc2Cl)n(-c2ncccc2Cl)n1 [Example 261] | 90% | – | – |
| COc1ccccc1NS(=O)(=O)NC(=O)c1cn(C)c(-c2c(F)cccc2F)n1 [Example 508] | 90% | – | – |
| Cc1ccccc1S(=O)(=O)NC(=O)c1cn(C)c(-c2ccccc2Oc2ccccc2)n1 [Example 485] | 90% | – | – |
| Cc1ccccc1S(=O)(=O)NC(=O)c1cn(C)c(-c2csc3ccccc23)n1 [Example 530] | 90% | – | – |
| Cn1cc(C(=O)NS(=O)(=O)c2c(C(F)(F)F)cccc2[Si](C)(C)C)nc1-c1c(F)cccc1F [Example 375] | 90% | – | – |
| Cn1cc(C(=O)NS(=O)(=O)Nc2ccccc2)nc1-c1c(F)cccc1F [Example 507] | 90% | – | – |
| Cc1cc(C(=O)NS(=O)(=O)c2ccccc2Br)nn1-c1ccccc1C(F)(F)F [Example 292] | 90% | – | – |
| Cn1cc(C(=O)NS(=O)(=O)c2ccccc2Br)nc1-c1ncccc1F [Example 564] | – | 100% | 100% |
| COc1ccc(F)cc1S(=O)(=O)NC(=O)c1cn(C)c(-c2cccc(Cl)c2Cl)n1 [Example 463] | – | 100% | 100% |
| Cn1cc(C(=O)NS(=O)(=O)c2c(Cl)cccc2C(F)(F)F)nc1-c1ncccc1F [Example 609] | – | 90% | 100% |
| Cc1cccc([N+](=O)[O-])c1S(=O)(=O)NC(=O)c1cn(C)c(-c2c(F)cccc2F)n1 [Example 367] | – | 90% | 100% |
| COc1ccc(OC)c(S(=O)(=O)NC(=O)c2cn(C)c(-c3ncccc3Cl)n2)c1 [Example 598] | – | 90% | 100% |
| COCCS(=O)(=O)NC(=O)c1cn(C)c(-c2c(F)cccc2Cl)n1 [Example 150] | – | 90% | 90% |
| COc1ccc(C)c(S(=O)(=O)NC(=O)c2cn(C)c(-c3cccnc3Cl)n2)c1 [Example 565] | – | 100% | 100% |
| COc1ccccc1S(=O)(=O)NC(=O)c1cn(C)c(-c2ccccc2Cl)n1 [Example 59] | – | 90% | 100% |
| Cn1cc(C(=O)NS(=O)(=O)c2c(F)cccc2F)nc1-c1ccccc1Cl [Example 53] | – | 100% | 100% |
| COc1ccccc1S(=O)(=O)NC(=O)c1cn(C)c(-c2c(F)cccc2Cl)n1 [Example 111] | – | 100% | 100% |
| Cn1cc(C(=O)NS(=O)(=O)CC(F)(F)F)nc1-c1ccccc1Cl [Example 66] | – | 100% | 100% |
| Cn1cc(C(=O)NS(=O)(=O)c2ccccc2Cl)nc1-c1c(F)cccc1C#N [Example 501] | – | 100% | 100% |

| Compound | pest or weed control at 20 ppm (Meloidogyne incognita) | pest or weed control at 500 g/ha (Myzus persicae [1]) | pest or weed control at 20 ppm (Myzus persicae [2]) |
| --- | --- | --- | --- |
| Cn1cc(C(=O)NS(=O)(=O)c2ccccc2Br)nc1-c1ncccc1Cl [Example 585] | – | 100% | 100% |
| Cc1ccccc1S(=O)(=O)NC(=O)c1nc(-c2c(F)cccc2F)n(C)n1 [Example 159] | – | 90% | 100% |
| COc1ccccc1S(=O)(=O)NC(=O)c1cn(C)c(-c2ncccc2Cl)n1 [Example 574] | – | 100% | 100% |
| Cn1cc(C(=O)NS(=O)(=O)c2sc(Cl)cc2Br)nc1-c1c(F)cccc1F [Example 211] | – | 100% | 100% |
| Cn1cc(C(=O)NS(=O)(=O)c2ccccc2C(F)(F)F)nc1-c1ccccc1F [Example 30] | – | 90% | 100% |
| COc1ccc(F)cc1S(=O)(=O)NC(=O)c1cn(C)c(-c2c(F)cccc2F)n1 [Example 17] | – | 90% | 100% |
| COc1ccc([N+](=O)[O-])c(S(=O)(=O)NC(=O)c2cn(C)c(-c3c(F)cccc3F)n2)c1 [Example 389] | – | 90% | 100% |
| Cn1cc(C(=O)NS(=O)(=O)c2ccccc2Cl)nc1-c1cccnc1Cl [Example 490] | – | 90% | 100% |
| CCc1ccccc1S(=O)(=O)NC(=O)c1cc(C)n(-c2ncccc2Br)n1 [Example 298] | – | 100% | 100% |
| CCc1[nH]c(-c2c(F)cccc2F)nc1C(=O)NS(=O)(=O)c1ccccc1Cl [Example 124] | – | 90% | 100% |
| Cn1cc(C(=O)NS(=O)(=O)c2c(F)cccc2Br)nc1-c1c(F)cccc1F [Example 432] | – | 100% | 100% |
| Cn1cc(C(=O)NS(=O)(=O)c2ccccc2Cl)nc1-c1c(F)cccc1F [Example 91] | – | 90% | 100% |
| CCc1[nH]c(-c2c(F)cccc2F)nc1C(=O)NS(=O)(=O)c1ccccc1C [Example 125] | – | 90% | 100% |
| COc1ccc(Br)c(S(=O)(=O)NC(=O)c2cn(C)c(-c3ncccc3F)n2)c1 [Example 607] | – | 90% | 100% |
| COc1ccc(OC)c(S(=O)(=O)NC(=O)c2cn(C)c(-c3cccc(Cl)c3Cl)n2)c1 [Example 462] | – | 90% | 90% |
| Cn1cc(C(=O)NS(=O)(=O)c2ccccc2Cl)nc1-c1ccccc1F [Example 94] | – | 100% | 100% |
| Cc1cccc(C(F)(F)F)c1S(=O)(=O)NC(=O)c1cn(C)c(-c2ncccc2F)n1 [Example 563] | – | 100% | 100% |
| Cc1ccccc1-c1nc(C(=O)NS(=O)(=O)c2ccccc2Cl)cn1C [Example 97] | – | 100% | 100% |
